The record followed here is patent US20240124442A1, “TRICYCLIC-AMIDO-BICYCLIC PRMT5 INHIBITORS” (AMGEN INC., priority 2021, published 2024).

The subject of test [1] is HCT116 MTAP null cells. Nature of the test: HCT116 MTAP null cell line proliferation / cell viability (CellTiter-Glo, 6 days). The class given is cell-based. As to conditions: 144 h; HCT116 MTAP null cells, 6 days treatment, CellTiter-Glo cell viability; read-out: HCT-116 MTAP null IC50. An outline of the steps:
(§1)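 WT vs MTAP-null HCT116, 6 d drug, CTG readout. 1:3 × 8–9 pts (top 1/10 μM) or 1:2 × 22 pts (top 10/50 μM). IC50 by 4PL or Hill −1 fit.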
(In ATP-based viability assays light output follows the ATP content of the culture.)

The subject of test [2] is HCT116 WT cells. Nature of the test: HCT116 WT (parent) cell line proliferation / cell viability (CellTiter-Glo, 6 days). To be noted: Homo sapiens, HCT-116, 144 h, 6 days treatment. The class given is cell-based. Summed up: as §1

SMILES strings stand for the structures.

As usually defined, the IC50 is the midpoint of a concentration-inhibition curve. As to `CN(C(=O)c1cc2c3c(c(N)nc2cc1Cl)COC3)[C@@H]1COCc2nc(C(F)(F)F)ccc21` [Example 274, 4-amino-7-chloro-N-methyl-N-((5S)-2-(trifluoromethyl)-5,8-dihydro-6H-pyrano[3,4-b]-pyridin-5-yl)-1,3-dihydrofuro-[3,4-c]quinoline-8-carboxamide], the results for the 50% inhibitory concentration (IC50) in test [1] and in test [2] were 4 nM and 229 nM, respectively.

Regarding `CN(C(=O)c1cc2c3c(c(N)nc2nc1Cl)COC3)[C@@H]1COCc2cc(C#N)ccc21` [Example 275, 4-amino-7-chloro-N-((4S)-7-cyano-3,4-dihydro-1H-2-benzopyran-4-yl)-N-methyl-1,3-dihydrofuro[3,4-c][1,8]-naphthyridine-8-carboxamide], the concentration for half-maximal inhibition (IC50) in test [1] worked out at 83 nM; in test [2], 2670 nM.

Take `CN(C(=O)c1cc2c3c(c(N)nc2nc1Cl)COC3)[C@@H]1COCc2cc(C(F)(F)F)ccc21` [Example 276, 4-amino-7-chloro-N-methyl-N-((4S)-7-(trifluoromethyl)-3,4-dihydro-1H-2-benzopyran-4-yl)-1,3-dihydrofuro[3,4-c][1,8]-naphthyridine-8-carboxamide]: the IC50 in test [1] amounted to 16 nM; in test [2], 417 nM.

For the molecule `Cc1cc2nc(N)c3c(c2cc1C(=O)N(C)[C@@H]1COCc2nc(C(F)(F)F)ccc21)COC3` [Example 277, 4-amino-N,7-dimethyl-N-((5S)-2-(trifluoromethyl)-5,8-dihydro-6H-pyrano[3,4-b]pyridin-5-yl)-1,3-dihydrofuro[3,4-c]quin-oline-8-carboxamide], the half-inhibitory concentration (IC50) worked out at 5 nM in test [1] and 202 nM in test [2].

On to `CN(C(=O)c1cc2c3c(c(N)nc2cc1C(F)(F)F)COC3)[C@@H]1COCc2nc(C(F)(F)F)ccc21` [Example 278, 4-amino-N-methyl-7-(trifluoro-methyl)-N-((5S)-2-(trifluoro-methyl)-5,8-dihydro-6H-pyrano[3,4-b]pyridin-5-yl)-1,3-dihydrofuro[3,4-c]quinoline-8-carboxamide], for which the figures for the half-inhibitory concentration (IC50) in test [1] and in test [2] were 56 nM and 4290 nM, respectively.

Turning to `CN(C(=O)c1ccc2nc(N)c3ccncc3c2c1)[C@@H]1COCc2nc(C(F)(F)F)ccc21` [Example 279, 5-amino-N-methyl-N-((5S)-2-(trifluoromethyl)-5,8-dihydro-6H-pyrano[3,4-b]pyridin-5-yl)benzo[c][2,6]naphthyridine-9-carboxamide], the IC50 in test [1] amounted to 17 nM; in test [2], 706 nM.

In the case of `CN(C(=O)c1ccc2nc(N)c3ncncc3c2c1)[C@@H]1COCc2nc(C(F)(F)F)ccc21` [Example 280, 5-amino-N-methyl-N-((5S)-2-(trifluoromethyl)-5,8-dihydro-6H-pyrano[3,4-b]pyridin-5-yl)pyrimido[4,5-c]quinoline-9-carboxamide], the 50% inhibitory concentration (IC50) in test [1] was 461 nM; in test [2], 5050 nM.

As for `CN(C(=O)c1cc2c(cn1)nc(N)c1ccncc12)[C@@H]1COCc2nc(C(F)(F)F)ccc21` [Example 281, 5-amino-N-methyl-N-((5S)-2-(trifluoromethyl)-5,8-dihydro-6H-pyrano[3,4-b]pyridin-5-yl)pyrido[4,3-c][1,7]naph-thyridine-9-carboxamide], the values for the half-maximal inhibitory concentration (IC50) in test [1] and in test [2] were 23 nM and 611 nM, respectively.

For the molecule `CN(C(=O)c1cc2c(cn1)nc(N)c1ncncc12)[C@@H]1COCc2nc(C(F)(F)F)ccc21` [Example 282, 5-amino-N-methyl-N-((5S)-2-(trifluoromethyl)-5,8-dihydro-6H-pyrano[3,4-b]pyridin-5-yl)-pyrimido[4,5-c][1,7]naphthyr-idine-9-carboxamide], the half-inhibitory concentration (IC50) in test [1] came to 475 nM; in test [2] it was 5970 nM.

For the molecule `COc1ccc2c(n1)COC[C@H]2N(C)C(=O)c1ccc2nc(N)c3cnn(C)c3c2c1` [Example 283, 4-amino-N-((5S)-2-methoxy-5,8-dihydro-6H-pyrano[3,4-b]-pyridin-5-yl)-N,1-dimethyl-1H-pyrazolo[4,3-c]quinoline-8-carboxamide], the 50% inhibitory concentration (IC50) in test [1] is 21 nM; in test [2], 1360 nM.

With `COc1ccc2c(n1)COC[C@@H]2N(C)C(=O)c1ccc2nc(N)c3cnn(C)c3c2c1` [Example 284, 4-amino-N-((5R)-2-methoxy-5,8-dihydro-6H-pyrano[3,4-b]-pyridin-5-yl)-N,1-dimethyl-1H-pyrazolo[4,3-c]quinoline-8-carboxamide], the IC50 in test [1] stood at 674 nM; in test [2], 15600 nM.

Consider `CCOc1ncc2c(n1)COC[C@H]2N(C)C(=O)c1ccc2nc(N)c3cnn(C)c3c2c1` [Example 285, 4-amino-N-((5S)-2-ethoxy-5,8-dihydro-6H-pyrano[3,4-d]-pyrimidin-5-yl)-N,1-dimethyl-1H-pyrazolo[4,3-c]quinoline-8-carboxamide], for which the IC50 in test [1] is 974 nM; in test [2], 31300 nM.

As for `CN(C(=O)c1ccc2nc(N)c3cnn(C)c3c2c1)[C@@H]1COCc2nc(C(F)(F)F)ccc21` [Example 286, 4-amino-N,1-dimethyl-N-((5S)-2-(trifluoromethyl)-5,8-dihydro-6H-pyrano[3,4-b]pyridin-5-yl)-1H-pyrazolo[4,3-c]quinoline-8-carboxamide], the figures for the IC50 in test [1] and in test [2] were 8 nM and 619 nM, respectively.

As for `CN(C(=O)c1cc2c(cn1)nc(N)c1cnn(C)c12)[C@@H]1COCc2cc(C(F)(F)F)ccc21` [Example 288, 4-amino-N,1-dimethyl-N-((4S)-7-(trifluoromethyl)-3,4-dihydro-1H-2-benzopyran-4-yl)-1H-pyrazolo[4,3-c][1,7]naphthyr-idine-8-carboxamide], the results for the 50% inhibitory concentration (IC50) in test [1] and in test [2] were 6 nM and 72 nM, respectively.

With `CN(C(=O)c1cc2c(cn1)nc(N)c1cnn(C)c12)[C@@H]1COCc2nc(C(F)(F)F)ccc21` [Example 289, 4-amino-N,1-dimethyl-N-((5S)-2-(trifluoromethyl)-5,8-dihydro-6H-pyrano[3,4-b]pyridin-5-yl)-1H-pyrazolo[4,3-c][1,7]naph-thyridine-8-carboxamide], the IC50 came to 16 nM in test [1] and 357 nM in test [2].

Regarding `CN(C(=O)c1cc2c(cc1F)nc(N)c1cnn(C)c12)C1CCOc2nc(C(F)(F)F)ccc21` [Example 291, 4-amino-7-fluoro-N,1-dimethyl-N-((4R)-7-(trifluoromethyl)-3,4-dihydro-2H-pyrano[2,3-b]-pyridin-4-yl)-1H-pyrazolo[4,3-c]quinoline-8-carboxamide and 4-amino-7-fluoro-N,1-dimethyl-N-((4S)-7-(trifluoromethyl)-3,4-dihydro-2H-pyrano[2,3-b]pyr-idin-4-yl)-1H-pyrazolo[4,3-c]-quinoline-8-carboxamide], the results for the IC50 in test [1] and in test [2] were 169 nM and 10500 nM, respectively.

For the molecule `CN(C(=O)c1cc2c(cc1F)nc(N)c1cnn(C)c12)[C@@H]1COCc2cc(C(F)(F)F)ncc21` [Example 292, 4-amino-7-fluoro-N,1-dimethyl-N-((4S)-7-(trifluoromethyl)-3,4-dihydro-1H-pyrano[4,3-c]pyr-idin-4-yl)-1H-pyrazolo[4,3-c]-quinoline-8-carboxamide], the values for the concentration for half-maximal inhibition (IC50) in test [1] and in test [2] were 7 nM and 224 nM, respectively.

For the molecule `CN(C(=O)c1cc2c(cc1F)nc(N)c1cnn(C)c12)[C@H]1COCc2cc(C(F)(F)F)ncc21` [Example 293, 4-amino-7-fluoro-N,1-dimethyl-N-((4R)-7-(trifluoromethyl)-3,4-dihydro-1H-pyrano[4,3-c]-pyridin-4-yl)-1H-pyrazolo[4,3-c]quinoline-8-carboxamide], the IC50 was 305 nM in test [1] and 7210 nM in test [2].

In the case of `CN(C(=O)c1cc2c(cc1Cl)nc(N)c1cnn(C)c12)[C@@H]1COCc2cc(C(F)(F)F)ccc21` [Example 294, 4-amino-7-chloro-N,1-dimethyl-N-((4S)-7-(trifluoromethyl)-3,4-dihydro-1H-2-benzopyran-4-yl)-1H-pyrazolo[4,3-c]quinoline-8-carboxamide], the IC50 worked out at 3 nM in test [1] and 12 nM in test [2].

Consider `CN(C(=O)c1cc2c(cc1Cl)nc(N)c1cnn(C)c12)[C@@H]1COCc2nc(C(F)(F)F)ccc21` [Example 295, 4-amino-7-chloro-N,1-dimethyl-N-((5S)-2-(trifluoromethyl)-5,8-dihydro-6H-pyrano[3,4-b]-pyridin-5-yl)-1H-pyrazolo[4,3-c]quinoline-8-carboxamide], for which the results for the 50% inhibitory concentration (IC50) in test [1] and in test [2] were 2 nM and 34 nM, respectively.

For `CN(C(=O)c1cc2c(nc1Cl)nc(N)c1cnn(C)c12)[C@@H]1COCc2cc(C(F)(F)F)ccc21` [Example 296, 4-amino-7-chloro-N,1-dimethyl-N-((4S)-7-(trifluoromethyl)-3,4-dihydro-1H-2-benzopyran-4-yl)-1H-pyrazolo[4,3-c][1,8]naph-thyridine-8-carboxamide], the IC50 in test [1] came to 8 nM; in test [2], 159 nM.

As for `Cc1cc2nc(N)c3cnn(C)c3c2cc1C(=O)N(C)[C@@H]1COCc2nc(C(F)(F)F)ccc21` [Example 297, 4-amino-N,1,7-trimethyl-N-((5S)-2-(trifluoromethyl)-5,8-dihydro-6H-pyrano[3,4-b]pyr-idin-5-yl)-1H-pyrazolo[4,3-c]-quinoline-8-carboxamide], the IC50 in test [1] stood at 6 nM; in test [2] it was 162 nM.

As to `Cc1cc2nc(N)c3cnn(C)c3c2cc1C(=O)N(C)[C@@H]1COCc2nc(Br)ccc21` [Example 298, 4-amino-N-((5S)-2-bromo-5,8-dihydro-6H-pyrano[3,4-b]-pyridin-5-yl)-N,1,7-trimethyl-1H-pyrazolo[4,3-c]quinoline-8-carboxamide], the IC50 in test [1] was found to be 1 nM; in test [2], 16 nM.

Consider `Cc1nc2nc(N)c3cnn(C)c3c2cc1C(=O)N(C)[C@@H]1COCc2cc(C#N)ccc21` [Example 299, 4-amino-N-((4S)-7-cyano-3,4-dihydro-1H-2-benzopyran-4-yl)-N,1,7-trimethyl-1H-pyr-azolo[4,3-c][1,8]naphthyridine-8-carboxamide], for which the half-maximal inhibitory concentration (IC50) in test [1] is 37 nM; in test [2], 1520 nM.
